This is an account of results in publication PMC5224920, “Assessing the mechanism and therapeutic potential of modulators of the human Mediator complex-associated protein kinases” (eLife, 2016).

Each structure is given as a SMILES string.

The test system of assay [1] is colorectal PDX tumor models. Nature of the assay: Colorectal cancer PDX in vivo therapy. As to conditions: six colorectal PDX models; p<0.0001. Set-up: species or system human. An excerpt:
To follow up our standard xenograft experiments, we next tested compound activity in human patient-derived tumor xenograft models (PDXs). Firstly, we determined if our compounds were active in in vitro soft agar clonogenic assays, using cells derived from 89 distinct PDX models from different tissue types. In this assay, colony growth was inhibited, but only by up to 50%, in one-third of PDX cell cultures treated with tool compound 2 (Figure 3A–B). Six of the more sensitive colorectal PDX tumor models were selected for in vivo monotherapy either with the lead compound 3 alone, or combined with a standard of care drug (irinotecan or oxaliplatin). […] Importantly, the combination of 3 with standard of care therapies was only of statistically significant benefit in one colorectal tumor model, CFX 1034 (p<0.001; Figure 3C and Figure 3—figure supplement 1).
PDX experiments were conducted at Oncotest (Germany).

Another assay relates to p-STAT1^SER727. Nature of the assay: p-STAT1 SER727 in rat spleen in toleration study. It counts as in vivo. As to conditions: 6 hr post-treatment, all doses tested. The source says:
Our aim was to determine if there was a therapeutic window for the compounds, using PK/PD and efficacy data determined in our mouse models as a guide. Following daily doses of compound 3 or 4 for 14 days in rats we detected significant, adverse alterations in multiple organ systems and tissues (Table 1). […] Other adverse pathomorphological findings included necrotic and apoptotic cell lesions in the exocrine pancreas, gastrointestinal mucosa (stomach and duodenum), male reproductive tract (Figure 7), mammary gland, skin (hair follicle), heart (valvular interstitial cells) and lymphatic tissues (thymus, spleen, lymph nodes). Proliferative lesions were found in the lungs (bronchiolar epithelium and smooth muscle cells), liver (bile ducts and smooth muscle cells of hepatic arteries), thymus (epithelium free areas), mammary gland, male reproductive system and heart (valvular interstitial cells) (Table 1).
Figure 7. Examples of degenerative and proliferative lesions in rats treated with CDK8/19 ligands 3 or 4. (A) Intact proliferative zone in the bone growth plate of a control rat. (B) Dysplastic proliferative zone, showing disturbance of regular endochondrial ossification, from a rat treated with 20 mg/kg 3. Scale bar in A and B = 100 µm. (C) Intact epididymides, with epididymal cells, isolated from a control rat. […]

Assay [2] has as its system mouse KS483 osteoprogenitor cells. Nature of the assay: Bone formation assay in KS483 osteoprogenitor cells (PINP, calcium). The settings on record: 13 d. It counts as cell-based. As for the experimental part: Bone formation assays were conducted by Pharmatest (Finland) in mouse KS483 osteoprogenitor cells cultured for 13 d with LGK974 or 3. The amount of PINP secreted into the culture medium, and calcium deposition, were measured by ELISA (Roche Diagnostics, UK).

A further assay deals with CDK8 (Homo sapiens, UniProt P49336). Nature of the assay: CDK8 binding (Lanthascreen binding competition / reporter displacement assay).
Chain of CDK8 (P49336 whole entry): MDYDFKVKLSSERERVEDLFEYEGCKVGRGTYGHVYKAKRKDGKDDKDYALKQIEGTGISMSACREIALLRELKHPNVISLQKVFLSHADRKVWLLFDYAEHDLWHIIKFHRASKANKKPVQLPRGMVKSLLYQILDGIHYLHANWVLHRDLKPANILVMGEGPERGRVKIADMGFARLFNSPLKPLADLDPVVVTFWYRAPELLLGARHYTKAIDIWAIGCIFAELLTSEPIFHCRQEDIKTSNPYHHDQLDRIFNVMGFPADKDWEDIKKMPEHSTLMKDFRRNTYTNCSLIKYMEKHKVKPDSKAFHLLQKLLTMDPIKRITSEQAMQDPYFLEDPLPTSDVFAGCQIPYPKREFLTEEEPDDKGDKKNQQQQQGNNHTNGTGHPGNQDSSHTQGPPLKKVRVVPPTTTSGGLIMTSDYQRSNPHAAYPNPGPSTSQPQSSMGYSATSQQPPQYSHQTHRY
Chain of CDK8 (P24863 whole entry partner): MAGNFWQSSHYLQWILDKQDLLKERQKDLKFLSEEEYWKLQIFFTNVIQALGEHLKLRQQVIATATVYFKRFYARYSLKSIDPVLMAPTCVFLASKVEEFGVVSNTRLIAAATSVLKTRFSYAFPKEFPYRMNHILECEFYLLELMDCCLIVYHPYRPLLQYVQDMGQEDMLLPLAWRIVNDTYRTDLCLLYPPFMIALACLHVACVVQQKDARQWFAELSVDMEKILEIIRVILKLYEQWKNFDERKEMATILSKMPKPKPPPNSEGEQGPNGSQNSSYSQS
The next assay relates to SW948. Nature of the assay: 14 d colony growth assay, SW948. The settings on record: 350 nM, mean (range), n = 2. It counts as cell-based, human.

On to `Cn1ncc2cc(-c3cnc(N)c(Cl)c3N3CCC4(CCNC4=O)CC3)ccc21` [CMPD 3], for which the “Response of colorectal PDX tumor models to monotherapy” value in assay [1] is “Only two of these colorectal cancer PDX tumors models, CFX 883 and CFX 1753, responded”. Moreover, in the assay on p-STAT1^SER727, the “Inhibition of STAT1^SER727 phosphorylation” value is given as 80%. Further, in assay [2], the Calcium deposition result was “inhibited in a concentration-dependent manner”; the PINP secretion entry is “stimulated PINP secretion at low concentrations and inhibited PINP secretion at higher concentrations”.

By IC50 is commonly meant the concentration at which inhibition is half-maximal. Low values mean inhibition by little substance, high ones a need for much substance. Molecule `Cc1n[nH]c2ncc(C(=O)N3CCC[C@H]3c3ccc(Cl)cc3)cc12` [CMPD 4] registered an IC50 at CDK8 of 4.4 ± 0.3 nM. In the assay on SW948, the “14 d colony growth (relative to control)” value is reported as 0.13 (0.02).
